From US4687773A, “(+)-N-N-propylnorapomorphine and selective limbic activity” (priority 1985, dated 1987)
Structures can show the parent of a compound that is named as a salt. Where two headings read alike, the source gives them in different places.

Columns and labels:
[1] = test system: dopamine (DA) receptors in the basal ganglia (corpus striatum); assay: Stereotyped licking and gnawing behavior rating in the rat; type: in vivo; conditions: for SB Score, Percent of Maximum / SB Score (stereotyped behaviors): Table 12, 3 mg/kg ip; for SB Score (stereotyped behaviors): max. possible score 18.0; for stereotyped behavior (in words): rat, in vivo
Text: Stereotypy: The mean stereotyped licking and gnawing behavioral rating scheme developed by Tarsy and Baldessarini^8 was used. […]
Stereotypy scores were rated for one hour as described in […]

[2] = test system: dopamine (DA) receptors in the limbic system; assay: Locomotor activity (spontaneous or aroused by (-)APO / (-)NPA), electronic activity monitor; type: in vivo, rat; conditions: for interaction with (-)APO locomotor arousal (in words) / EAM Score / EAM Score, Percent of Control: Table 11; for interaction with (-)APO locomotor arousal (in words): 3 mg/kg ip with (-)APO; for EAM Score: 60 min; for effect on locomotor-arousal activity (in words): with or without (-) isomer; for increase of the locomotor stimulatory effect of APO: with (-)APO; for Locomotion: Table 4
Protocol: (§1) Activity: Overall motor activity was measured by use of the self-recording Stoelting electronic activity monitor method described previously by Stewart, Campbell, Sperk, and Baldessarini^9. Total activity is obtained by setting monitor sensitivity so as to detect both locomotion and small movements (such as grooming, sniffing, and chewing) as would be prominent in stereotyped responses that tend to diminish locomotion and increase sniffing, licking, and chewing movements. Locomotor activity is detected selectively by setting monitor sensitivity to detect large, locomotor movements, and to minimize smaller movements already described.
Rats (mean N=6 per condition) were tested for locomotor activity for 60 min following a single dose of (-)APO (0.3 mg/kg, SC), or its vehicle ("placebo" condition). The S(+) isomers were administered in a range of doses from 0 or 0.1 to 30 mg/kg, SC immediately following injection of (-)APO or its vehicle. Data are presented in FIG. 2 as mean EAM activity counts per hour SEM. In that figure, the dashed line labeled "control" represents the mean activity of rats given vehicle only and no aporphine (SD values are indicated by parallel light lines above and below the control mean).
Test agents (11substituted-N--propylnoraporphine isomers were given at a
dose of 3 mg/kg, ip (in 2 ml/kg) just prior to (-)apomorphine (APO, at 0.
mg/kg, ip, in 1 ml/kg) to rats (N = 6) tested in an electronic activity

[3] = test system: DA in the limbic system (nucleus accumbens septi); assay: Arousal (locomotor activity) induced by DA injected into nucleus accumbens septi; type: in vivo, rat; conditions: for activity counts (arousal induced by 16 μg DA in accumbens): 30 min, DA control 238 ± 38; for ED50: Rattus norvegicus; for ED50 / ID50: DA 16 μg in accumbens; for ID50: hydrochloride
Protocol: An experiment shown in Table 9 involves testing the effects of S(+) isomers of apomorphine (APO) and N-propylnorapomorphine (NPA) given systemically (intraperitoneally, ip), as well as S(+) methylenedioxy-N-propylnorapomorphine (MDO-NPA) given ip or orally (po, by orogastric intubation). […]. […] Activity was monitored for 30 min after injection of DA into the brain, which was done at 10 min after systemic dosing with an S(+)aporphine test compound.
Data are mean activity counts ± SEM (N = 6) for rats given DA into the
medial accumbens after pretreatment with an inhibitor of monoamine oxidas
(MA0), and monitored on EAM for 30 min (aporphine given 10 min before DA
systemicallyintraperitoneally [ip] or orally [po].

[4] = test system: DA in the corpus striatum (basal ganglia); assay: Head posture (contralateral head deviation) after intrastriatal DA; type: in vivo, rat
[5] = test system: dopamine (DA) receptors in the limbic system; assay: Effect of metabolic inhibitor SKF-525A on locomotor effect of (+)MDO-NPA; type: in vivo, rat
Protocol: Rats (N = 6) per condition) were tested by monitoring locomotor activity
on an electronic monitor under higharousal conditions (7-8 PM during earl
"lights out" phase, and singly in previously occupied test cages).
Pretreatment was saline (control) or the microsomal inhibitor SKF525A (40
mg/kg, ip). At 30 min later, saline or (+)MDONPA (3 mg/kg, ip) was given,
and the rats were monitored for the next 60 min. Data are activity counts
per hour, as means ± SEM ([*] = significant by ttest at p < 0.05). Th

[6] = test system: dopamine (DA) receptors in the limbic system and basal ganglia; assay: Total motor activity, electronic activity monitor (EAM); type: in vivo, rat; conditions: Table 4
Protocol: as §1
All data presented in the Tables below are expressed as the mean results from 4-6 rats per condition, ±S.E.M. Stereotypy is expressed in rating units (maximum=3.0) and activity is expressed in arbitrary units of percent change, derived from EAM counts per unit time, relative to activity in control (saline) animals set at zero.
All the posttreatment doses of (+)APO were 3.0 mg/kg, s.c. The data
All posttreatment doses of (+)NPA were 3 mg/kg, s.c. The data are similar

[7] = test system: dopamine (DA) receptors in the limbic system; assay: Locomotor activity (spontaneous or aroused by (-)APO / (-)NPA), electronic activity monitor; type: in vivo, rat; conditions: Table 4; (-)APO 3.0 mg/kg + saline
[8] = test agent 3 mg/kg ip just prior to (-)APO ip
[9] = test agent 3 mg/kg ip just prior to (-)APO ip, * p < 0.005
[10] = intrastriatal DA 16 μg, 3 mg/kg ip
[11] = intrastriatal DA 16 μg, 3 mg/kg po
[12] = SKF-525A 40 mg/kg ip pretreatment, then S(+)MDO-NPA 3 mg/kg ip
[13] = intrastriatal dopamine 16 μg + systemic saline
[14] = SKF-525A 40 mg/kg ip, then saline

Structure (SMILES): CCCN1CCc2cccc3c2[C@@H]1Cc1cccc(O)c1-3 [(+)11-OH--N--propylnoraporphine, S(+) 11-hydroxy-N-propylnoraporphine hydrochloride and hydrobromide]
- SB Score, Percent of Maximum [1]: 6.9% of Maximum
- SB Score (stereotyped behaviors) ([1]; one hour): 1.3 ± 0.75
- stereotyped behavior (in words) [1]: virtually inactive
- interaction with (-)APO locomotor arousal (in words) ([2]; listed as S(+)11-hydroxy-N-propylnoraporphine, hydrobromide, 3 mg/kg): strong inhibitory interaction with APO
- interaction with (-)APO locomotor arousal (in words) ([2]; listed as S(+)11hydroxy-N--propylnoraporphine, hydrobromide, 3 mg/kg): significant inhibition of arousal
- EAM Score [2, 8]: 218 ± 33
- EAM Score, Percent of Control [2, 9]: 43% of Control
- effect on locomotor-arousal activity (in words) [2]: exerted similarly selective actions as (+)NPA

Structure (SMILES): CCCN1CCc2cccc3c2[C@@H]1Cc1cccc(OC)c1-3 [(+)11-methoxy-N--propylnoraporphine, S(+) 11-Methoxy-N-propylnoraporphine hydrobromide]
- SB Score, Percent of Maximum [1]: 0.0% of Maximum
- SB Score (stereotyped behaviors) ([1]; one hour): 0 ± 0
- stereotyped behavior (in words) [1]: inactive
- interaction with (-)APO locomotor arousal (in words) [2]: devoid of activity
- EAM Score [2, 8]: 528 ± 25
- EAM Score, Percent of Control [2, 9]: 105% of Control

Structure (SMILES): CCCN1CCc2cccc3c2[C@@H]1Cc1ccc2c(c1-3)OCO2 [(+)MDO-NPA, S(+) 10,11-methylenedioxy-N-propylnoraporphine hydrochloride]
- activity counts (arousal induced by 16 μg DA in accumbens) ([3]; 0.3 mg/kg ip): 122 ± 16 activity counts
- activity counts (arousal induced by 16 μg DA in accumbens) ([3]; 0.3 mg/kg po): 149 ± 23 activity counts
- activity counts (arousal induced by 16 μg DA in accumbens) ([3]; 1.0 mg/kg ip): 54 ± 9 activity counts
- activity counts (arousal induced by 16 μg DA in accumbens) ([3]; 1.0 mg/kg po): 74 ± 17 activity counts
- activity counts (arousal induced by 16 μg DA in accumbens) ([3]; 3.0 mg/kg ip): 36 ± 7 activity counts
- activity counts (arousal induced by 16 μg DA in accumbens) ([3]; 3.0 mg/kg po): 49 ± 16 activity counts
- ED50 ([3]; ip, read-out: ID50, ip): 0.27 mg/kg
- ED50 ([3]; po, read-out: ID50, po): 0.51 mg/kg
- ID50 ([3]; ip): 0.3 mg/kg
- ID50 ([3]; po): 0.5 mg/kg
- effect on arousal induced by DA in accumbens (in words) ([3]; rat, in vivo): also active after systemic oral administration, selectively, against DA placed in the accumbens but not the striatum
- times more potent than (+)APO as inhibitor of DA in the limbic system ([3]; vs (+)APO): 13 times
- Contralateral Head Deviation, Percent of Total [4, 10]: 71.7% of Total
- Contralateral Head Deviation, Time [4, 10]: 512 ± 96 s
- Contralateral Head Deviation, Percent of Total [4, 11]: 70.1% of Total
- Contralateral Head Deviation, Time [4, 11]: 505 ± 89 s
- Locomotor Activity [5, 12]: 3445 ± 597 counts/hr
- Locomotor Activity (%) [5, 12]: 82%
- Locomotor Activity ([5]; saline pretreatment, then S(+)MDO-NPA 3 mg/kg ip): 1828 ± 265 counts/hr
- Locomotor Activity (%) ([5]; saline pretreatment, then S(+)MDO-NPA 3 mg/kg ip, * p < 0.05): 43%

Structure (SMILES): CCCN1CCc2cccc3c2[C@H]1Cc1cccc(O)c1-3 [(-)11-OH--N--propylnoraporphine, R(-)11-hydroxy-N-propylnoraporphine]
- SB Score, Percent of Maximum [1]: 76.7% of Maximum
- SB Score (stereotyped behaviors) ([1]; one hour): 13.8 ± 0.75
- stereotyped behavior (in words) ([1]; listed as R(-)11-hydroxy-N-- propylnoraporphine): very active
- stereotyped behavior (in words) ([1]; listed as R(-)11-hydroxy-N-propylnoraporphine): striking activity as a DA agonist
- increase of the locomotor stimulatory effect of APO ([2]; 3 mg/kg): 51%
- EAM Score [2, 8]: 764 ± 58
- EAM Score, Percent of Control [2, 9]: 151% of Control

Structure (SMILES): CCCN1CCc2cccc3c2[C@H]1Cc1cccc(OC)c1-3 [(-)11-methoxy-N--propylnoraporphine]
- SB Score, Percent of Maximum [1]: 36.1% of Maximum
- SB Score (stereotyped behaviors) ([1]; one hour): 6.5 ± 0.50
- stereotyped behavior (in words) ([1]; listed as 11-methoxy congener): moderately active
- stereotyped behavior (in words) ([1]; listed as R(-)11methoxy analog): had some activity
- increase of the locomotor stimulatory effect of APO ([2]; 3 mg/kg): 14%
- EAM Score [2, 8]: 574 ± 45
- EAM Score, Percent of Control [2, 9]: 114% of Control

Structure (SMILES): CN1CCc2cccc3c2[C@H]1Cc1ccc(O)c(O)c1-3 [(-)APO, R(-)apomorphine]
- mean control stereotypy score, % of maximum ([1]; (-)APO 0.3 mg/kg IP + vehicle): 51.3 % of maximum
- mean control stereotypy score ([1]; (-)APO 0.3 mg/kg IP + vehicle, one hour, maximum possible score 18.0): 9.23 ± 0.43
- approximate ED50 (stereotyped behavior) ([1]; (-)APO, IP, rats): ~0.3 mg/kg
- Stereotypy Score ([1]; Table 1, (-) isomer 3 mg/kg, s.c., ± saline, maximum 3.0): 3.0 ± 0.0 rating units
- Stereotypy Score ([1]; Table 4, (-)APO 0.3 mg/kg + saline): 1.62 ± 0.23 rating units
- Stereotypy Score ([1]; Table 4, (-)APO 1.0 mg/kg + saline): 2.09 ± 0.36 rating units
- Stereotypy Score ([1]; Table 4, (-)APO 3.0 mg/kg + saline): 2.92 ± 0.20 rating units
- Total Activity ([6]; (-)APO 0.3 mg/kg + saline): 42.2 ± 8.5 percent change
- Total Activity ([6]; (-)APO 1.0 mg/kg + saline): 51.9 ± 6.8 percent change
- Total Activity ([6]; (-)APO 3.0 mg/kg + saline): 75.3 ± 8.6 percent change
- Locomotion ([2]; (-)APO 0.3 mg/kg + saline): 63.5 ± 12.3 percent change
- Locomotion ([2]; (-)APO 1.0 mg/kg + saline): 75.8 ± 19.4 percent change
- EAM Score, Percent of Control ([2]; (-)APO alone (control)): 100% of Control
- EAM Score ([2]; (-)APO alone (control), ip): 505 ± 55
- Locomotion [7]: 48.6 ± 9.3 percent change

Structure (SMILES): NCCc1ccc(O)c(O)c1 [DA, dopamine]
- Contralateral Head Deviation, Percent of Total [4, 13]: 59.0% of Total
- Contralateral Head Deviation, Time [4, 13]: 425 ± 53 s

Structure (SMILES): CN1CCc2cccc3c2[C@@H]1Cc1cccc(O)c1-3 [S(+) 11-hydroxyaporphine, S(+) 11-hydroxyaporphine (N-R=N-methyl)]
- effect on locomotor-arousal activity (in words) [2]: less active

Structure (SMILES): CCCC(C(=O)OCCN(CC)CC)(c1ccccc1)c1ccccc1 [SKF-525A]
- Locomotor Activity [5, 14]: 4777 ± 610 counts/hr
- Locomotor Activity (%) [5, 14]: 113%
